25 molecules from patent US10370343B2, “[6,6] Fused bicyclic HDAC8 inhibitors” (FORMA Therapeutics, Inc., priority 2015, dated 2019) can be followed below.

This test addresses T1, Recombinant N-terminal GST tag full-length human HDAC8 (Homo sapiens, UniProt Q9BY41).
T1 construct: Recombinant N-terminal GST tag full-length human HDAC8; purchased SignalChem H90-30G-1000; host or cells: baculovirus in Sf9 insect cells
T1 sequence (Q9BY41 1-377): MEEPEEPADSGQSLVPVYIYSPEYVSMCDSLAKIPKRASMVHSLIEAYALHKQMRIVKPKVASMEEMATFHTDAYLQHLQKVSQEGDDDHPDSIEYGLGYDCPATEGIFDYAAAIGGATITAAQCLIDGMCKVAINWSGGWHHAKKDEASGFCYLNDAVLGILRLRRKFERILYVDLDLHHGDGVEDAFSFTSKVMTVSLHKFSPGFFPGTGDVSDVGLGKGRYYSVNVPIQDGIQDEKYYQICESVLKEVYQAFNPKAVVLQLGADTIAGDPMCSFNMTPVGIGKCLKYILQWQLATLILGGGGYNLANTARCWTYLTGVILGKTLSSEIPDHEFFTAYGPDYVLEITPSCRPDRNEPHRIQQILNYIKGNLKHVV
The test is described as follows: HDAC8 probe binding assay, time resolved fluorescence (TRF) format. The conditions noted are these: compounds grouped by IC50 range (Table 2). Here is the method: The HDAC8 probe binding assay was performed using a time resolved fluorescence (TRF) assay format. Recombinant N-terminal GST tag full-length human HDAC8 was expressed and purified from baculovirus in Sf9 insect cells (SignalChem, #[…]-1000). […] Plates were incubated for 16 hours at room temperature before time resolved fluorescence was read on the Envision (Excitation at 340 nm, and Emission at 485 nm and 535 nm, Perkin Elmer). Data from HDAC8 Assays were reported as percent inhibition (inh) compared with control wells based on the following equation: % inh=1-((FLU-AveLow)/(AveHigh-AveLow)) where FLU=measured time resolved fluorescence. AveLow=average time resolved fluorescence of no enzyme control (n=32). AveHigh=average time resolved fluorescence of DMSO control (n=32). IC50 values were determined by curve fitting of the standard 4 parameter logistic fitting algorithm included in the Activity Base software package: IDBS XE Designer Model205. Data is fitted using the Levenburg Marquardt algorithm. Ranges of IC50 values for compounds of the invention are disclosed in Table 2: Table 2. provides the compounds arranged according to […] determined in a time resolved fluorescence (TRF) assay. The compounds are separated into four groups: […]

Broadly, the IC50 is the point on the concentration scale where inhibition reaches its midpoint. For `O=C(NO)c1ccc2c(c1)N(Cc1nc3ccc(C(F)(F)F)cc3o1)C(=O)CO2` [Compound I-233, N-hydroxy-3-oxo-4-((6-(trifluoromethyl)benzo[d]oxazol-2-yl)methyl)-3,4-dihydro-2H-benzo[b][1,4]oxazine-6-carboxamide], the IC50 was at most 25 nM.
On to `O=C(NO)c1ccc2c(c1)N(Cc1nc3cc(C(F)(F)F)ccc3o1)C(=O)CO2` [Compound I-234, N-hydroxy-3-oxo-4-((5-(trifluoromethyl)benzo[d]oxazol-2-yl)methyl)-3,4-dihydro-2H-benzo[b][1,4]oxazine-6-carboxamide], for which the IC50 is at most 25 nM.
Consider `N#Cc1cccc(CN2C(=O)COc3ccc(C(=O)NO)cc32)c1` [Compound I-236, 4-(3-cyanobenzyl)-N-hydroxy-3-oxo-3,4-dihydro-2H-benzo[b][1,4]oxazine-6-carboxamide], for which the IC50 is at most 25 nM.
Consider `N#Cc1ccc(CN2C(=O)COc3ccc(C(=O)NO)cc32)cc1` [Compound I-237, 4-(4-cyanobenzyl)-N-hydroxy-3-oxo-3,4-dihydro-2H-benzo[b][1,4]oxazine-6-carboxamide], for which the IC50 was at most 25 nM.
In the case of `Cn1cc2cc(CN3C(=O)COc4ccc(C(=O)NO)cc43)ccc2n1` [Compound I-238, N-hydroxy-4-((2-methyl-2H-indazol-5-yl)methyl)-3-oxo-3,4-dihydro-2H-benzo[b][1,4]oxazine-6-carboxamide], the IC50 is at most 25 nM.
In the case of `Cc1nc2ccc(CN3C(=O)COc4ccc(C(=O)NO)cc43)cc2o1` [Compound I-239, N-hydroxy-4-((2-methylbenzo[d]oxazol-6-yl)methyl)-3-oxo-3,4-dihydro-2H-benzo[b][1,4]oxazine-6-carboxamide], the IC50 was at most 25 nM.
On to `Cn1cc2ccc(CN3C(=O)COc4ccc(C(=O)NO)cc43)cc2n1` [Compound I-240, N-hydroxy-4-((2-methyl-2H-indazol-6-yl)methyl)-3-oxo-3,4-dihydro-2H-benzo[b][1,4]oxazine-6-carboxamide], for which the IC50 was at most 25 nM.
Take `Cc1cc2oc(CN3C(=O)COc4ccc(C(=O)NO)cc43)nc2cc1Cl` [Compound I-261, 4-((5-chloro-6-methylbenzo[d]oxazol-2-yl)methyl)-N-hydroxy-3-oxo-3,4-dihydro-2H-benzo[b][1,4]oxazine-6-carboxamide]: the IC50 was at most 25 nM.
For the molecule `O=C(NO)c1ccc2c(c1)N(Cc1ccc(C(F)(F)F)c(F)c1)C(=O)CO2` [Compound I-266, 4-(3-fluoro-4-(trifluoromethyl)benzyl)-N-hydroxy-3-oxo-3,4-dihydro-2H-benzo[b][1,4]oxazine-6-carboxamide], the IC50 was at most 25 nM.
As for `O=C(NO)c1ccc2c(c1)N(Cc1nc3ccc(Cl)cc3o1)C(=O)CO2` [Compound I-287, 4-((6-chlorobenzo[d]oxazol-2-yl)methyl)-N-hydroxy-3-oxo-3,4-dihydro-2H-benzo[b][1,4]oxazine-6-carboxamide], the IC50 is at most 25 nM.
For `O=C(NO)c1ccc2c(c1)N(Cc1nc3ccccc3s1)C(=O)CO2` [Compound I-289, 4-(benzo[d]thiazol-2-ylmethyl)-N-hydroxy-3-oxo-3,4-dihydro-2H-benzo[b][1,4]oxazine-6-carboxamide], the IC50 is at most 25 nM.
The figure for `CC1(C)Oc2ccc(C(=O)NO)cc2N(Cc2nc3ccc(F)cc3o2)C1=O` [Compound I-291, 4-((6-fluorobenzo[d]oxazol-2-yl)methyl)-N-hydroxy-2,2-dimethyl-3-oxo-3,4-dihydro-2H-benzo[b][1,4]oxazine-6-carboxamide] is at most 25 nM; for `CC1(C)Oc2ccc(C(=O)NO)cc2N(Cc2nc3ccc(Cl)cc3o2)C1=O` [Compound I-294, 4-((6-chlorobenzo[d]oxazol-2-yl)methyl)-N-hydroxy-2,2-dimethyl-3-oxo-3,4-dihydro-2H-benzo[b][1,4]oxazine-6-carboxamide] it is at most 25 nM.
In the case of `CC1(C)Oc2ccc(C(=O)NO)cc2N(Cc2nc3ccccc3s2)C1=O` [Compound I-295, 4-(benzo[d]thiazol-2-ylmethyl)-N-hydroxy-2,2-dimethyl-3-oxo-3,4-dihydro-2H-benzo[b][1,4]oxazine-6-carboxamide], the IC50 was 25 to 100 nM.
The figure for `CC1(C)Oc2ccc(C(=O)NO)cc2N(CCCc2ccccc2)C1=O` [Compound I-298, N-hydroxy-2,2-dimethyl-3-oxo-4-(3-phenylpropyl)-3,4-dihydro-2H-benzo[b][1,4]oxazine-6-carboxamide] is 25 to 100 nM; for `CC1(C)Oc2ccc(C(=O)NO)cc2N(Cc2c(Cl)cccc2Cl)C1=O` [Compound I-299, 4-(2,6-dichlorobenzyl)-N-hydroxy-2,2-dimethyl-3-oxo-3,4-dihydro-2H-benzo[b][1,4]oxazine-6-carboxamide] it is 25 to 100 nM; for `CC1(C)Oc2ccc(C(=O)NO)cc2N(Cc2cccc(C(F)(F)F)c2)C1=O` [Compound I-300, N-hydroxy-2,2-dimethyl-3-oxo-4-(3-(trifluoromethyl)benzyl)-3,4-dihydro-2H-benzo[b][1,4]oxazine-6-carboxamide] it is 25 to 100 nM.
Consider `CC1(C)Oc2ccc(C(=O)NO)cc2N(Cc2ccccc2OC(F)(F)F)C1=O` [Compound I-302, N-hydroxy-2,2-dimethyl-3-oxo-4-(2-(trifluoromethoxy)benzyl)-3,4-dihydro-2H-benzo[b][1,4]oxazine-6-carboxamide], for which the IC50 lay within 25 to 100 nM.
As to `C[C@@H](c1ccccc1)N1C(=O)C(C)(C)Oc2ccc(C(=O)NO)cc21` [Compound I-303, (S)-N-hydroxy-2,2-dimethyl-3-oxo-4-(1-phenylethyl)-3,4-dihydro-2H-benzo[b][1,4]oxazine-6-carboxamide], the half-inhibitory concentration (IC50) lay within 25 to 100 nM.
On to `CC1(C)Oc2ccc(C(=O)NO)cc2N(Cc2ccc(C(F)(F)F)cc2)C1=O` [Compound I-305, N-hydroxy-2,2-dimethyl-3-oxo-4-(4-(trifluoromethyl)benzyl)-3,4-dihydro-2H-benzo[b][1,4]oxazine-6-carboxamide], for which the IC50 was 25 to 100 nM.
Regarding `CC1(C)Oc2ccc(C(=O)NO)cc2N(Cc2ccc(-c3ccccc3)cc2)C1=O` [Compound I-306, 4-([1,1′-biphenyl]-4-ylmethyl)-N-hydroxy-2,2-dimethyl-3-oxo-3,4-dihydro-2H-benzo[b][1,4]oxazine-6-carboxamide], the half-inhibitory concentration (IC50) was in the range of 25 to 100 nM.
Consider `CC1(C)Oc2ccc(C(=O)NO)cc2N(Cc2nc(-c3ccccc3)sc2Cl)C1=O` [Compound I-308, 4-((5-chloro-2-phenylthiazol-4-yl)methyl)-N-hydroxy-2,2-dimethyl-3-oxo-3,4-dihydro-2H-benzo[b][1,4]oxazine-6-carboxamide], for which the IC50 was 25 to 100 nM.
The value for `CC1(C)Oc2ccc(C(=O)NO)cc2N(Cc2nc(-c3ccccc3)sc2Cc2ccccc2)C1=O` [Compound I-309, 4-((5-benzyl-2-phenylthiazol-4-yl)methyl)-N-hydroxy-2,2-dimethyl-3-oxo-3,4-dihydro-2H-benzo[b][1,4]oxazine-6-carboxamide] was above 1000 nM; that for `CC1(C)Oc2ccc(C(=O)NO)cc2N(Cc2ccc(Cl)c(Cl)c2)C1=O` [Compound I-312, 4-(3,4-dichlorobenzyl)-N-hydroxy-2,2-dimethyl-3-oxo-3,4-dihydro-2H-benzo[b][1,4]oxazine-6-carboxamide] was 25 to 100 nM; that for `CC1(C)Oc2ccc(C(=O)NO)cc2N(Cc2ccc3ccccc3c2)C1=O` [Compound I-317, N-hydroxy-2,2-dimethyl-4-(naphthalen-2-ylmethyl)-3-oxo-3,4-dihydro-2H-benzo[b][1,4]oxazine-6-carboxamide] was 25 to 100 nM.
